Reference: a melting point compilation (Tetko et al.; mined from patent text by program, amines drawn as free bases though some values may be those of a salt)

melting point [°C]	SMILES
258 to 263	O=c1c2c(O)c(O)ccc2c2cc(O)c(O)cc2n1Cc1ccc([N+](=O)[O-])cc1
123	COC(C)=CC(=O)Nc1ccc(Cl)c(Cl)c1
115 to 116	CN1CCc2ccn(S(=O)(=O)c3ccccc3)c2C(c2ccccc2)C1 (stereo not drawn)
142 to 145	O=C1c2cc(F)cc(F)c2CC[C@@H]1NC(=O)C(F)(F)F
195 to 199	COC(=O)c1cscc1NC(=O)NCCN1CCN(c2ccccc2OC)CC1
141 to 142	C=CCOc1ccc(C(=O)c2ccc(Cl)c(S(=O)(=O)N=CN(C)C)c2)c(Cl)c1Cl
205	COc1ccc(Cl)cc1NC(=O)Nc1ccc(N2CCN(C(=O)OC(C)(C)C)CC2)cc1
88.5 to 90.5	Cn1c2ccccc2c(=O)c2ccc(Cl)n21
109 to 111	CC1(C)COC(c2ccc3c(c2)COC3=O)=N1
200	COc1cccc(NC(=O)NCC(=O)N(CC(=O)N2CCCC(C)(C)C2)c2ccccc2)c1
> 250	CC(C)(C)NS(=O)(=O)c1ccc(-c2cn(-c3cc(-c4ccc(C(F)(F)F)cc4)cc(C(F)(F)F)n3)cn2)s1
129 to 131	CC(O)C#Cc1cc(Cl)cc2nc(-c3ccccc3Cl)oc12 (stereo not drawn)
138 to 140	CC1(C)CC(=O)C(C(=O)Nc2cccc([N+](=O)[O-])c2)C(=O)O1 (stereo not drawn)
188 to 190	O=C(O)CCCc1ccc(NS(=O)(=O)c2ccc(Br)cc2)cn1
276	Cc1c(C(=O)Nc2ccc(N3CCN(C4CCOCC4)CC3)c(C#N)c2)cnn1-c1ccc(Cl)cc1
210 to 212	Cn1cc(C(=O)O)cc1C(=O)c1ccccc1
186 to 187	CC(C)(O)C#Cc1ccc(C(=C2CC(C)(C)CC(C)(C)C2)c2ccc(O)cc2)cc1
129 to 131	COc1cc2c(cc1OCCCN1CCC(c3[nH]cc4cc(F)ccc34)CC1)CCCC2=O
173 to 175	CCCCCCCc1ccc(NC(=O)Nc2ccccc2C(=O)NC2CCN(C(c3ccccc3)c3ccccc3)CC2)cc1
142	Cc1c(C)c(Cl)c2ccccc2c1Cl
190 to 192	CCCc1c2nc(C(=O)OCC)cc(OCC)c2cc2c(=O)cc(C(=O)OCC)oc12
99 to 100	COCON=C(C(=O)C=CN(C)C)C(=O)OC
148 to 150	CC1c2cccc3c2N(CC3)c2ccccc2N1CC#N (stereo not drawn)
75.5 to 77.5	CCc1ccc(-c2nc(-c3ccccc3Cl)nn2C)c(Cl)c1
83 to 85	Cc1c(Cl)cccc1N=Cc1ccccc1Cl

melting point [°C]	SMILES
160 to 161	CNC(=O)C(=NO)c1ccccc1C
110 to 112	O=C1NNC2=CC(=O)N(c3ccccc3)c3cc(Cl)ccc3N12
155 to 156	CN(C)C=NS(=O)(=O)c1cc(CCNC(=O)C(F)(F)F)ccc1I
200 to 203	CC(C)=NNc1cc2c(nn1)CCN(C(=O)c1ccccc1F)C2
99	C=CCN1CCN(C2N=C(N)OC2C)CC1 (stereo not drawn)
240	O=C(C=Cc1ccc(Cl)c([N+](=O)[O-])c1)N1CCc2c([nH]c3ccccc23)C1c1ccc2c(c1)OCO2 (stereo not drawn)
162	COc1ccc(N2C(=O)C(C)(C)N(c3ccc(Cc4ccccc4)cc3)C2=S)cc1
105 to 110	CCOC(=O)c1c(N2CCN(C(=O)c3cccs3)CC2)c2cccnc2n(Cc2cccc(F)c2)c1=O
270 to 272	CCC(=O)Nc1ccc(-c2c[nH]c(=O)cn2)cc1
171 to 173	Cc1cc(-c2ccc(S(N)(=O)=O)cc2)n(-c2ccc(Cl)cc2)c1
147 to 149	CCC(C)(C)NC(=S)Nc1cc(Br)cc(Br)c1
157	N#CCCc1cccc(-c2nc(=O)c3ccccc3s2)n1
199 to 200	CCOC(=O)c1csc(-c2ccc3cc(O)c(C45CC6CC(CC(C6)C4)C5)cc3c2)c1
119 to 121	O=C1CCC(N2Cc3c(OCc4ccc(CN5CCCOCC5)cc4)cccc3C2=O)C(=O)N1 (stereo not drawn)
205 to 206	CNc1cc(OC)c(-c2nc(C)c(-c3cccnc3)[nH]2)cc1Cl
214 to 216	Cc1cc(COc2cccc3c2CN(C2CCC(=O)NC2=O)C3=O)nn1C (stereo not drawn)
99.5 to 101	COC(=O)CCn1c(=O)n(CCCCCN2CCN(c3cccc(C(F)(F)F)c3)CC2)c(=O)c2cscc21
75 to 77	COC(=O)c1ccnc(N2CCN(CC3CC3)C2=O)c1
113 to 116	CCN(CC)C(=O)n1cnc(S(=O)(=O)CC2CCC2)n1
39 to 42	CC(C)(C)OC(=O)NCCCCCC(=O)O
123	CCCCCCCCCC(CCC)CC(C)CC(O)c1cc(O)ccc1O (stereo not drawn)
242 to 245	CCCc1nc2c(N)nc3ccc(-c4cccc(NC(C)=O)c4)cc3c2s1
138 to 139	O=C(O)CCc1cc(-c2ccc(Cl)cc2)n(-c2ccccc2)n1
118 to 120	O=C(C(=O)C12CC3CC(CC(C3)C1)C2)c1ccc(OC(F)F)cc1
87	CCOC(=O)c1ccc(N=C(C)c2ccccc2)cc1

melting point [°C]	SMILES
186	CNC(=O)c1ccc2c(c1)c(-c1cc3cccnc3[nH]1)cn2C
145	Cc1coc2c(C(=O)c3cccs3)cc(C(C)(C)C)c(O)c12
74 to 76	CCOC(=O)C[C@H]1CC[C@H](CNC(C)=O)CC1
71 to 74	COc1ccc(C(=O)C(CCC(=O)c2ccc(F)cc2)c2ccc(OC)cc2)cc1 (stereo not drawn)
159	CCCC1=NN(c2ccncc2)C(=O)C1=CNc1ccccc1CC
113 to 116	COC(c1c(Cl)sc(Cl)c1Cl)C(C)N(OC)C(=O)c1cn(C)nc1C(F)F (stereo not drawn)
203 to 206	CC1=NC(C)(COc2ccc(NC(=O)c3cc(F)cc(N4CCOCC4)c3)c3ccccc23)CO1 (stereo not drawn)
278	Nc1nc(/C=C/c2ccc([N+](=O)[O-])cc2)cs1
141 to 143	C=CCCONC(=O)c1nc(-c2ccc(Cl)c(OC)c2F)cc(N)c1Cl
94.9 to 96	CC(C)C[C@H](NC(=O)O[C@H]1CCOC1)C(=O)O
115 to 116	CC(=O)c1ccc(-c2ccc(C#N)cc2)o1
232 to 234	O=C(c1ccc2scnc(=O)c2c1)N1CCCC1
103 to 106	CCCCn1c(CC)ccc1Cc1cccc(NC(N)=O)c1
54.4 to 56.5	CCCCCCCc1ccc(-c2ccc(OC)cc2)nc1
129	CCn1c2c(c3ccccc31)C=CN(C(=O)OC)C=C2C(=O)OC
149 to 152	Cc1ccc2c(C(C)C(N)=O)ccc(C(C)C)cc1-2 (stereo not drawn)
128 to 130	CCCCOC(=O)[C@H]1CN(c2ccc(N3CCSCC3)c(F)c2)C(=O)O1
150	CC(Oc1ccc(Nc2cnc3cc(Cl)ccc3c2)cc1)C(=O)O (stereo not drawn)
122 to 125	CC(C)c1nc(N(C)S(C)(=O)=O)nc(-c2ccc(F)cc2)c1Br
124 to 126	CCOC(=O)Cc1ccc(-c2nc(COc3cc(C(=O)OC)on3)c(C)o2)cc1
97 to 100	CCCNc1c(CN)cnc2cn[nH]c12
120 to 123	Cc1nc2c(CCc3ccccc3)cccn2c1CC#N
267 to 269	Cc1nnc2ccc(-c3ccc(Cl)c(C(F)(F)F)c3)nn12
